From patent US8435980B2 (AbbVie Inc., priority 2009, dated 2013)

These compounds were tested against T1, Cdc7 (BEV coexpressed huCDC7/DBF4) (Homo sapiens, UniProt O00311) (assay: Cdc7 enzyme inhibition assay ([33P]ATP, biotinylated peptide substrate, FlashPlate)). Conditions: not given.
T1 construct: made in house; host or cells: BEV (baculovirus expression vector) co-expression; insect cells are implied but no cell line is named
T1 sequence (O00311 whole entry): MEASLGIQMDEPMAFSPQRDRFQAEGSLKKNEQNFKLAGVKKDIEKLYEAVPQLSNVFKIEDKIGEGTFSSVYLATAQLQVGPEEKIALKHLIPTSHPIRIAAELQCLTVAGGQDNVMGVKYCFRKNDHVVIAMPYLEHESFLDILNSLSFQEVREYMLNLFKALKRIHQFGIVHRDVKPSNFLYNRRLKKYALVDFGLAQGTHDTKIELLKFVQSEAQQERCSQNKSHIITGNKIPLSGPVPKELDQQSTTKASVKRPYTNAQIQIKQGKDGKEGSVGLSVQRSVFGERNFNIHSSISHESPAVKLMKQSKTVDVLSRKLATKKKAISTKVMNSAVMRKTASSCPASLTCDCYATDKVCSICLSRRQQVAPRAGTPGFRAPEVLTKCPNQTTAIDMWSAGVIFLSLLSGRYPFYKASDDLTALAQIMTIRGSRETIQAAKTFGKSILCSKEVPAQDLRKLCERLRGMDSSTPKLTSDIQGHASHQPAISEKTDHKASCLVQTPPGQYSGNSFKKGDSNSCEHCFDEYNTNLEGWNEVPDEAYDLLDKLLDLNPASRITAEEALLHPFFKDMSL
T1 sequence (Q9UBU7 whole entry partner): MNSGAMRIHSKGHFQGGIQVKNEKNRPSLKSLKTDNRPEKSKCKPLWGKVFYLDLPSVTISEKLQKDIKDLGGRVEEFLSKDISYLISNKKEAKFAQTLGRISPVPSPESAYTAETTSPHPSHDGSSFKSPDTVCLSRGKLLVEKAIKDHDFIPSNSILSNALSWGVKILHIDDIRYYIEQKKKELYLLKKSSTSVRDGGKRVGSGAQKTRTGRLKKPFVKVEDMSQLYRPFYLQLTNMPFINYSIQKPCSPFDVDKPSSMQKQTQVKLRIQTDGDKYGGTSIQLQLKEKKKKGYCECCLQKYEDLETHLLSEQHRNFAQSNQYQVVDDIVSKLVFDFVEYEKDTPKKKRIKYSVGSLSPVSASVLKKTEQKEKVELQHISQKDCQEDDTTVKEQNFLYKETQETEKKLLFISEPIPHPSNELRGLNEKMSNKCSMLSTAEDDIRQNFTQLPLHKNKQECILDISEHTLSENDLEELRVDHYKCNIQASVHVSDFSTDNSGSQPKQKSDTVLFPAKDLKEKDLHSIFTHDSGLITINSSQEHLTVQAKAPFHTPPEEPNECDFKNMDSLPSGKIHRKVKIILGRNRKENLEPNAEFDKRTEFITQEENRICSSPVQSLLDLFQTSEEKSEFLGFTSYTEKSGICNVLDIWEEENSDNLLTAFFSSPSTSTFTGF
Format: biochemical
Experimental: Cdc7 (BEV coexpressed huCDC7/DBF4) is prepared internally. Cdc7 assays are conducted as follows with final concentrations as listed. […] Reactions are quenched after 1 hr by the addition of 90 μL stop buffer (50 mM EDTA, 2M NaCl). […] (Ki) for exemplary compounds.
`Clc1cc(-c2c[nH]c3ncccc23)cc(NC2CCCCC2)n1` [Example 1, 6-Chloro-N-cyclohexyl-4-(1H-pyrrolo[2,3-b]pyridin-3-yl)pyridin-2-amine] showed a Ki of under 10 nM.
In the case of `NC1CCC(Nc2cc(-c3c[nH]c4ncccc34)cc(Cl)n2)CC1` (stereo not shown) [Example 15, N-[6-chloro-4-(1H-pyrrolo[2,3-b]pyridin-3-yl)pyridin-2-yl]cyclohexane-1,4-diamine], the Ki is reported as under 10 nM.
`Clc1cc(-c2c[nH]c3ncccc23)cc(NCC2CCCNC2)n1` (stereo not shown) [Example 38, 6-chloro-N-(piperidin-3-ylmethyl)-4-(1H-pyrrolo[2,3-b]pyridin-3-yl)pyridin-2-amine] showed a Ki of 10 to 100 nM.

Same assay, conditions: Table 3; enzyme inhibition data (Ki)
For `CC(C)(CNc1cc(-c2c[nH]c3ncccc23)cc(Cl)n1)CNS(=O)(=O)c1cccs1` [Example 306, N-(3-{[6-chloro-4-(1H-pyrrolo[2,3-b]pyridin-3-yl)pyridin-2-yl]amino}-2,2-dimethylpropyl)thiophene-2-sulfonamide], the Ki was 10 to 100 nM.
Work on `O=C(NC1CCCC1)N[C@H]1CC[C@H](Nc2nc(Cl)cc(-c3c[nH]c4ncccc34)n2)CC1` [Example 470, 1-(trans-4-{[4-chloro-6-(1H-pyrrolo[2,3-b]pyridin-3-yl)pyrimidin-2-yl]amino}cyclohexyl)-3-cyclopentylurea] yielded a Ki of under 10 nM.
`O=C(N[C@H]1CC[C@H](Nc2cc(-c3c[nH]c4ncccc34)cc(Cl)n2)CC1)C1CN(Cc2ccncc2)C1` [Example 249, N-(trans-4-{[6-chloro-4-(1H-pyrrolo[2,3-b]pyridin-3-yl)pyridin-2-yl]amino}cyclohexyl)-1-(pyridin-4-ylmethyl)azetidine-3-carboxamide] gave a Ki of under 10 nM.
Work on `Clc1cc(-c2c[nH]c3ncccc23)cc(NC2CCC(C3CCNC3)CC2)n1` (stereo not shown) [Example 190, 6-chloro-N-[4-(pyrrolidin-3-yl)cyclohexyl]-4-(1H-pyrrolo[2,3-b]pyridin-3-yl)pyridin-2-amine] yielded a Ki of under 10 nM.
In the case of `CCOc1cnc2[nH]cc(-c3cc(Cl)nc(N[C@H]4CC[C@H](N)CC4)c3)c2c1` [Example 224, trans-N-[6-chloro-4-(5-ethoxy-1H-pyrrolo[2,3-b]pyridin-3-yl)pyridin-2-yl]cyclohexane-1,4-diamine], the Ki is reported as under 10 nM.
For `CCN1CCC(C(=O)N[C@H]2CC[C@H](Nc3nc(Cl)cc(-c4c[nH]c5ncccc45)n3)CC2)C1` (relative stereo) [Example 462, N-(trans-4-{[4-chloro-6-(1H-pyrrolo[2,3-b]pyridin-3-yl)pyrimidin-2-yl]amino}cyclohexyl)-1-ethylpyrrolidine-3-carboxamide], the Ki was under 10 nM.
`Clc1cc(-c2c[nH]c3ncccc23)cc(NC2CCC(CC3CCC(NC4CCCCC4)CC3)CC2)n1` (stereo not shown) [Example 156] showed a Ki of under 10 nM.
`O=C(NC1CCC(N[C@H]2CC[C@H](Nc3cc(-c4c[nH]c5ncccc45)cc(Cl)n3)CC2)CC1)OCc1ccccc1` (relative stereo) [Example 363, benzyl {4-[(trans-4-{[6-chloro-4-(1H-pyrrolo[2,3-b]pyridin-3-yl)pyridin-2-yl]amino}cyclohexyl)amino]cyclohexyl}carbamate] was tested, and the Ki was under 10 nM.
Compound `CS(=O)(=O)N[C@@H]1CCCC[C@@H]1Nc1cc(-c2c[nH]c3ncccc23)cc(Cl)n1` (relative stereo) [Example 132, N-[(cis)-2-{[6-chloro-4-(1H-pyrrolo[2,3-b]pyridin-3-yl)pyridin-2-yl]amino}cyclohexyl]methanesulfonamide] has a Ki of under 10 nM.
Compound `Clc1cnc2[nH]cc(-c3cc(Cl)nc(NC4CCCCC4)c3)c2c1` [Example 384, 6-chloro-4-(5-chloro-1H-pyrrolo[2,3-b]pyridin-3-yl)-N-cyclohexylpyridin-2-amine] has a Ki of 10 to 100 nM.
With `CN(C)C1(C(=O)NC2CCCC(Nc3cc(-c4c[nH]c5ncccc45)cc(Cl)n3)C2)CCC1` (stereo not shown) [Example 349, N-(3-{[6-chloro-4-(1H-pyrrolo[2,3-b]pyridin-3-yl)pyridin-2-yl]amino}cyclohexyl)-1-(dimethylamino)cyclobutanecarboxamide] the Ki was 10 to 100 nM.
`COc1cnc2[nH]cc(-c3cc(Cl)nc(NC4CCC(CC5CCC(N(C)C)CC5)CC4)c3)c2c1` (stereo not shown) [Example 259, 6-chloro-N-(4-{[4-(dimethylamino)cyclohexyl]methyl}cyclohexyl)-4-(5-methoxy-1H-pyrrolo[2,3-b]pyridin-3-yl)pyridin-2-amine] showed a Ki of under 10 nM.
Work on `CSc1ccc(Nc2cc(-c3c[nH]c4ncccc34)cc(Cl)n2)cc1` [Example 418, 6-chloro-N-[4-(methylsulfanyl)phenyl]-4-(1H-pyrrolo[2,3-b]pyridin-3-yl)pyridin-2-amine] yielded a Ki of under 10 nM.
`Nc1ccc(-c2cnc3[nH]cc(-c4cc(Cl)nc(N[C@H]5CC[C@H](NS(=O)(=O)C6CC6)CC5)c4)c3c2)cn1` [Example 452, N-[trans-4-({4-[5-(6-aminopyridin-3-yl)-1H-pyrrolo[2,3-b]pyridin-3-yl]-6-chloropyridin-2-yl}amino)cyclohexyl]cyclopropanesulfonamide] was tested, and the Ki was under 10 nM.
`CS(=O)(=O)N1CC(C(=O)N[C@H]2CC[C@H](Nc3cc(-c4c[nH]c5ncccc45)cc(Cl)n3)CC2)C1` [Example 167, N-(trans-4-{[6-chloro-4-(1H-pyrrolo[2,3-b]pyridin-3-yl)pyridin-2-yl]amino}cyclohexyl)-1-(methylsulfonyl)azetidine-3-carboxamide] was tested, and the Ki was under 10 nM.
`Clc1cc(-c2c[nH]c3ncccc23)nc(NCc2cccnc2)n1` [Example 267, 4-chloro-N-(pyridin-3-ylmethyl)-6-(1H-pyrrolo[2,3-b]pyridin-3-yl)pyrimidin-2-amine] showed a Ki of under 10 nM.
Compound `CC(=O)N1CCC(C2CCC(Nc3cc(-c4c[nH]c5ncccc45)cc(Cl)n3)CC2)CC1` (stereo not shown) [Example 163, 1-[4-(4-{[6-chloro-4-(1H-pyrrolo[2,3-b]pyridin-3-yl)pyridin-2-yl]amino}cyclohexyl)piperidin-1-yl]ethanone] has a Ki of under 10 nM.
In the case of `O=S(=O)(NC1CCCC(Nc2cc(-c3c[nH]c4ncccc34)cc(Cl)n2)C1)c1ccco1` (stereo not shown) [Example 299, N-(3-{[6-chloro-4-(1H-pyrrolo[2,3-b]pyridin-3-yl)pyridin-2-yl]amino}cyclohexyl)furan-2-sulfonamide], the Ki is reported as under 10 nM.
Work on `O=S(=O)(NC1CCCC(Nc2cc(-c3c[nH]c4ncccc34)cc(Cl)n2)C1)c1cccs1` (stereo not shown) [Example 83, N-(3-{[6-chloro-4-(1H-pyrrolo[2,3-b]pyridin-3-yl)pyridin-2-yl]amino}cyclohexyl)thiophene-2-sulfonamide] yielded a Ki of under 10 nM.
Work on `O=C(NC1CCCC(Nc2cc(-c3c[nH]c4ncccc34)cc(Cl)n2)C1)C1CCCNC1` (stereo not shown) [Example 345, N-(3-{[6-chloro-4-(1H-pyrrolo[2,3-b]pyridin-3-yl)pyridin-2-yl]amino}cyclohexyl)piperidine-3-carboxamide] yielded a Ki of under 10 nM.
Work on `O=C1C[C@@H](C(=O)N[C@H]2CC[C@H](Nc3cc(-c4c[nH]c5ncccc45)cc(Cl)n3)CC2)N1` [Example 115, (2S)—N-(trans-4-{[6-chloro-4-(1H-pyrrolo[2,3-b]pyridin-3-yl)pyridin-2-yl]-amino}cyclohexyl)-4-oxo azetidine-2-carboxamide] yielded a Ki of under 10 nM.
Compound `O=C(N[C@H]1CC[C@H](Nc2cc(-c3c[nH]c4ncccc34)cc(Cl)n2)CC1)C1CCC1` [Example 133, N-(trans-4-{[6-chloro-4-(1H-pyrrolo[2,3-b]pyridin-3-yl)pyridin-2-yl]amino}cyclohexyl)cyclobutanecarboxamide] has a Ki of under 10 nM.
